Assays:
[1] = system: Cryptococcus neoformans ATCC 36556; test: In vitro antifungal activity (MIC), NCCLS method; format: cell-based; conditions: RPMI 1640 medium, 72 hours
Text: (§1) Candida albicans ATCC 10231, Candida lusitaniae ATCC 42720, Candida krusei ATCC 6258, Candida tropicalis ATCC 13803, Candida glabrata ATCC 48435, Candida parapsilosis ATCC 34136, Cryptococcus neoformans ATCC 36556, Aspergillus fumigatus ATCC 16424, Aspergillus flavus ATCC 64025, Aspergillus terreus ATCC 46941 and Mucor ramosissimus ATCC 90286 strains for the MIC (minimum inhibitory concentration) measurement were obtained from ATCC (American Type Culture Collection) in the U.S. The Candida albicans A207(clinical isolate) strain was used by isolating it from the patients.
(§2) The determination of MIC was performed according to the NCCLS (National Committee for Clinical Laboratory Standard) method. Each test sample solution was diluted two-fold and inoculated with a fungal suspension to reach a final inoculum size of 5×10^2 to 2.5×10^3 cell/mL. The Cryptococcus neoformans strain was cultured in the RPMI 1640 medium for 72 hours. Other strains were cultured for 48 hours.

[2] = system: Candida glabrata ATCC 48435; test: In vitro antifungal activity (MIC), NCCLS method; format: cell-based; conditions: Candida glabrata ATCC 48435; 48 hours
Text: as §1, §2

[3] = system: Aspergillus fumigatus ATCC 16424; test: In vitro antifungal activity (MIC), NCCLS method; format: cell-based; conditions: 48 hours
Text: as §1, §2

[4] = system: Candida albicans A207 (clinical isolate); test: In vitro antifungal activity (MIC), NCCLS method; format: cell-based; conditions: 48 hours
Text: as §1, §2

[5] = system: Aspergillus flavus ATCC 64025; test: In vitro antifungal activity (MIC), NCCLS method; format: cell-based; conditions: 48 hours
Text: as §1, §2

[6] = system: Candida lusitaniae ATCC 42720; test: In vitro antifungal activity (MIC), NCCLS method; format: cell-based; conditions: 48 hours
Text: as §1, §2

[7] = system: Candida albicans ATCC 10231; test: In vitro antifungal activity (MIC), NCCLS method; format: cell-based; conditions: 48 hours
Text: as §1, §2

[8] = system: Candida tropicalis ATCC 13803; test: In vitro antifungal activity (MIC), NCCLS method; format: cell-based; conditions: 48 hours
Text: as §1, §2

[9] = system: Aspergillus terreus ATCC 46941; test: In vitro antifungal activity (MIC), NCCLS method; format: cell-based; conditions: 48 hours
Text: as §1, §2

[10] = system: Mucor ramosissimus ATCC 90286; test: In vitro antifungal activity (MIC), NCCLS method; format: cell-based; conditions: 48 hours
Text: as §1, §2

Candida krusei ATCC 6258 = test: In vitro antifungal activity (MIC), NCCLS method; format: cell-based; conditions: 48 hours
Text: as §1, §2

[11] = system: Candida parapsilosis ATCC 34136; test: In vitro antifungal activity (MIC), NCCLS method; format: cell-based; conditions: Candida parapsilosis ATCC 34136; 48 hours
Text: as §1, §2

[12] = biological target: T1, chitin synthase 2 of Saccharomyces cerevisiae ECY38-38A(pAS6) (Saccharomyces cerevisiae, UniProt P14180); test: In vitro enzyme assay for chitin synthase 2 of Saccharomyces cerevisiae (enzyme 2); format: biochemical; conditions: relative to polyoxin D (50% inhibitory activity = value 5)
T1 construct: made in house; host or cells: Saccharomyces cerevisiae ECY38-38A (chs1-23 chs2::LEU2 cal1/csd2) carrying plasmid pAS6, grown in galactose medium; 130,000 x g membrane pellet
T1 sequence (P14180 whole entry): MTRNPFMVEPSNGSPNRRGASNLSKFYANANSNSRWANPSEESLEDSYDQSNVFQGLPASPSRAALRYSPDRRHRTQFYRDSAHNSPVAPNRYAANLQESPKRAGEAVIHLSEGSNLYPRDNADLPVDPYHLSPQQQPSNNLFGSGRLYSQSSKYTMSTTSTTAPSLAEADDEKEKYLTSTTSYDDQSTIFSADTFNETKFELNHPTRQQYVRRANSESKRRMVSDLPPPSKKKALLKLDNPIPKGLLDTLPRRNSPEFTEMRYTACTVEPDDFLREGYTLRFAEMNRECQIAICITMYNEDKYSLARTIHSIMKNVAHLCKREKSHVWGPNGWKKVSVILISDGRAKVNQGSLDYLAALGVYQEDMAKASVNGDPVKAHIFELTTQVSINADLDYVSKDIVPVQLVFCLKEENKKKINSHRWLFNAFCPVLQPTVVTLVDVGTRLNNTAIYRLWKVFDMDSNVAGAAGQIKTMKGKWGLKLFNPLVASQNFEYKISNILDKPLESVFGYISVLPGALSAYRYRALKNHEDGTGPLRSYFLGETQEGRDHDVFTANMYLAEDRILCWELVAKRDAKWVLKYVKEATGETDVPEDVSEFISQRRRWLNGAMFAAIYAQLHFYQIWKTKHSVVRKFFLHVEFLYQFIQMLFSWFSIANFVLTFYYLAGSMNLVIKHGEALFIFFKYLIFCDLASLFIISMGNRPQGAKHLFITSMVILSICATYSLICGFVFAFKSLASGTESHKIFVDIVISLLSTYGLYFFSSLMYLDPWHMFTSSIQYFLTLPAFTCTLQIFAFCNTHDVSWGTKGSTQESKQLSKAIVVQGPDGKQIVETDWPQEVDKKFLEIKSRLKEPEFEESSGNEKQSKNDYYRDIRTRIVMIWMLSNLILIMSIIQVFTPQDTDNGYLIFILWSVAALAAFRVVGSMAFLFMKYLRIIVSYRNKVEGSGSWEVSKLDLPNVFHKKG
Method in brief: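 Crude membrane chitin synthase 2 came from S. cerevisiae ECY38-38A(pAS6), expressing only CHS2, and was trypsin-activated (15 min, 30 °C) then trypsin-inhibited. The reaction ran in 32 mM Tris-HCl pH 7.5, 2 mM cobalt acetate, 1.1 mM UDP-[14C]-GlcNAc, 90 min at 30 °C. TCA-precipitated product was counted by scintillation; scores 1–8 reflect concentration relative to polyoxin D's 50% inhibition (score 5).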

[13] = biological target: T2, chitin synthase 1 of Candida albicans chs2 Δ chs 3 Δ (Candida albicans, UniProt P23316); test: In vitro enzyme assay for chitin synthase 1 of Candida albicans (enzyme 1); format: biochemical; conditions: relative to polyoxin D (50% inhibitory activity = value 5)
T2 construct: Crude enzyme was prepared using the Candida albicans chs2 Δ chs 3 Δ mutant; endogenous in cells; host or cells: Candida albicans chs2Δ/chs2Δ chs3Δ/chs3Δ mutant; 130,000 x g membrane pellet
T2 sequence (P23316 whole entry, stated change not applied): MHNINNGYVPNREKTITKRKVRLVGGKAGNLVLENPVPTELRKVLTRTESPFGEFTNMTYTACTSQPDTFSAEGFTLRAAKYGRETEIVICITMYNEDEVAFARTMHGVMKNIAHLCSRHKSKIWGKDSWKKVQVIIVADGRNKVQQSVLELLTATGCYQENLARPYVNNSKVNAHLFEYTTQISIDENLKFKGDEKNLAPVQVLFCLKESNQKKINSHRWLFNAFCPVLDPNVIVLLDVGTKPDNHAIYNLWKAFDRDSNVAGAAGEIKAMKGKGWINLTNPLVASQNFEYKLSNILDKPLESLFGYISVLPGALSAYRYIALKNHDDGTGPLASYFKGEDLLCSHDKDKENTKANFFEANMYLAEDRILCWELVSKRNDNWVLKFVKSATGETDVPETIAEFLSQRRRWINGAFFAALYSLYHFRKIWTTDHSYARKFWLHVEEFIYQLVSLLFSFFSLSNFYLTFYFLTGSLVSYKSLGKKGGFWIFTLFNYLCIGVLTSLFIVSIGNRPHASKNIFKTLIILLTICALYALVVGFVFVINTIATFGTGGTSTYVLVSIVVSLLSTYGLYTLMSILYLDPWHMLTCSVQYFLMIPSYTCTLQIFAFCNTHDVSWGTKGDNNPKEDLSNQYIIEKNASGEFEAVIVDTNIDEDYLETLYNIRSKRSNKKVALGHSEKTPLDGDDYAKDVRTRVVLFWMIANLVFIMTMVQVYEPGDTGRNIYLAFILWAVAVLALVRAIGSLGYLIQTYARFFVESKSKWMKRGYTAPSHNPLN
Method in brief: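 Crude membrane enzyme from the C. albicans chs2Δ chs3Δ strain was trypsin-activated for 15 min at 30 °C. Reaction: 32 mM Tris-HCl pH 7.5, 2 mM cobalt acetate, 1.1 mM UDP-[14C]GlcNAc, 90 min at 30 °C; TCA-insoluble radioactivity counted. Scored 1–8 by relative polyoxin D concentration (5 = equal).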

Substance	MIC (minimum inhibitory concentration) [1] [µg/mL]	MIC (minimum inhibitory concentration) [2] [µg/mL]	MIC (minimum inhibitory concentration) [3] [µg/mL]	MIC (minimum inhibitory concentration) [4] [µg/mL]	MIC (minimum inhibitory concentration) [5] [µg/mL]	MIC (minimum inhibitory concentration) [6] [µg/mL]	MIC (minimum inhibitory concentration) [7] [µg/mL]	MIC (minimum inhibitory concentration) [8] [µg/mL]	MIC (minimum inhibitory concentration) [9] [µg/mL]	MIC (minimum inhibitory concentration) [10] [µg/mL]	MIC (minimum inhibitory concentration) (Candida krusei ATCC 6258) [µg/mL]	MIC (minimum inhibitory concentration) [11] [µg/mL]	Relative activity Enzyme 2 [12]	Relative activity Enzyme 1 [13]
13-(4-Isopropylbenzyl)-9-O-(3-hydroxypropyl)berberrubine iodide [Compound No. 21]	1	2	2	0.5	8	2	0.5	0.5	8	4	1	2	6 (compounds having the inhibitory activity at ½, ¼ and ⅛ lower concentrations than that of polyoxin D were given the values of 6, 7 and 8, respectively)	3 (Compounds having the inhibitory activity at 2-fold, 4-fold, 8-fold and 16-fold higher concentrations than that of polyoxin D were given the values of 4, 3, 2 and 1, respectively)
13-(4-Isopropylbenzyl)-9-O-(4-isopropylbenzyl)berberrubine bromide [Compound No. 26]	2	2	4	1	8	4	1	1	8	8	2	8	5 (A compound having the same inhibitory activity as that of polyoxin D at the same concentration was given the value 5)	2 (Compounds having the inhibitory activity at 2-fold, 4-fold, 8-fold and 16-fold higher concentrations than that of polyoxin D were given the values of 4, 3, 2 and 1, respectively)
13-(4-Isopropylbenzyl)-9-O-(4-isopropylbenzyl)berberrubine chloride [Compound No. 58]	2	2	4	1	8	4	1	1	8	8	2	8	5 (A compound having the same inhibitory activity as that of polyoxin D at the same concentration was given the value 5)	2 (Compounds having the inhibitory activity at 2-fold, 4-fold, 8-fold and 16-fold higher concentrations than that of polyoxin D were given the values of 4, 3, 2 and 1, respectively)
13-(4-Isopropylbenzyl)-9-O-(4-tert-butylbenzyl)berberrubine bromide [Compound No. 25]	2	4	4	1	8	4	1	1	8	8	4	8	5 (A compound having the same inhibitory activity as that of polyoxin D at the same concentration was given the value 5)	2 (Compounds having the inhibitory activity at 2-fold, 4-fold, 8-fold and 16-fold higher concentrations than that of polyoxin D were given the values of 4, 3, 2 and 1, respectively)
13-(4-Isopropylbenzyl)-9-O-(4-tert-butylbenzyl)berberrubine chloride [Compound No. 57]	2	4	4	1	8	4	1	1	8	8	4	8	5 (A compound having the same inhibitory activity as that of polyoxin D at the same concentration was given the value 5)	2 (Compounds having the inhibitory activity at 2-fold, 4-fold, 8-fold and 16-fold higher concentrations than that of polyoxin D were given the values of 4, 3, 2 and 1, respectively)
13-(4-Isopropylbenzyl)-9-O-(6-chlorohexyl)berberrubine chloride [Compound No. 54]	1	2	2	0.5	8	2	0.5	0.5	8	4	1	2	6 (compounds having the inhibitory activity at ½, ¼ and ⅛ lower concentrations than that of polyoxin D were given the values of 6, 7 and 8, respectively)	2 (Compounds having the inhibitory activity at 2-fold, 4-fold, 8-fold and 16-fold higher concentrations than that of polyoxin D were given the values of 4, 3, 2 and 1, respectively)
13-(4-Isopropylbenzyl)-9-O-allylberberrubine chloride [Compound No. 55]	2	8	8	1	8	2	1	1	8	4	2	4	6 (compounds having the inhibitory activity at ½, ¼ and ⅛ lower concentrations than that of polyoxin D were given the values of 6, 7 and 8, respectively)	3 (Compounds having the inhibitory activity at 2-fold, 4-fold, 8-fold and 16-fold higher concentrations than that of polyoxin D were given the values of 4, 3, 2 and 1, respectively)
